Values joined by “and” are separate entries in the source; they are usually repeats but may differ in a detail not shown here. Equal values may be shown once.
Columns and labels:
Format in all cases: cell-based, human
[1] = test system: senescent IMR90 ER:RAS cells (4-OHT-induced); experiment: Nuclei count (Hoechst, high content imaging) senolytic assay, oncogene-induced senescence (OIS) model, senescent cells; conditions: for Mean % Cell Survival: Senescent, mean n=3 (Fig 3C); for % Cell Survival: senescence
How it was run: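 IMR90 ER:RAS (p14), ±4-OHT 100 nM; cpd 10 nM–10 μM, 10-pt […], 72 h, n=3. Fix formaldehyde, Triton X-100, Hoechst 2 μg/ml final. Readout: imaged nuclei count vs untreated; ouabain positive control.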

[2] = test system: senescent A549 cells (etoposide-induced); experiment: Nuclei count senolytic assay, therapy-induced senescence (TIS) model, senescent cells; conditions: for Mean % Cell Survival: Senescent cells; for % Cell Survival: senescence cells, single replicate
How it was run: (§1)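 Etoposide 100 μM, 48 h, + 3 d standard media → senescent A549; untreated A549 = controls. 24 h post-seeding, cpds 10 nM–10 μM final, 10-pt […], 72 h, n=3. Fix formaldehyde, permeabilise Triton-X100, Hoechst 2 μg/ml, image, count nuclei.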

[3] = test system: non-senescent control A549 cells; experiment: Nuclei count senolytic assay, TIS model, non-senescent control cells; conditions: for Mean % Cell Survival: Control cells; for % Cell Survival: control cells, single replicate
How it was run: as §1

CO[C@H]1C[C@H](O[C@H]2CC[C@]3(C)[C@H]4CC[C@]5(C)[C@@H](C6=CC(=O)OC6)CC[C@]5(O)[C@@H]4CC[C@]3(O)C2)O[C@H](C)[C@H]1O[C@@H]1O[C@H](CO)[C@@H](O)[C@H](O)[C@H]1O [Periplocin, periplocin]
dose showing the clearest / optimal senolytic effect ([1]; OIS IMR90 ER:RAS, Hoechst nuclei count, marginal effect on normal cells): 46.4 nM
IC50 ([1]; OIS model, 4-OHT-induced IMR90 ER:RAS, nuclei count, 72 h): 24 nM
Mean % Cell Survival ([1]; log (dose) [M] -5, 72 h): 3.183%
Mean % Cell Survival ([1]; log (dose) [M] -5.33, 72 h): 6.126%
Mean % Cell Survival ([1]; log (dose) [M] -5.66, 72 h): 4.43%
Mean % Cell Survival ([1]; log (dose) [M] -6, 72 h): 4.805%
Mean % Cell Survival ([1]; log (dose) [M] -6.33, 72 h): 5.142%
Mean % Cell Survival ([1]; log (dose) [M] -6.66, 72 h): 5.675%
Mean % Cell Survival ([1]; log (dose) [M] -7, 72 h): 6.834%
Mean % Cell Survival ([1]; log (dose) [M] -7.33, 72 h): 16.5597%
Mean % Cell Survival ([1]; log (dose) [M] -7.66, 72 h): 54.5059%
Mean % Cell Survival ([1]; log (dose) [M] -8, 72 h): 96.9401%
senolytic activity (in words) ([1]; experimental screen, OIS IMR90 ER:RAS): clear senolytic action
senolytic index (SI) ([1]; ratio between the IC50 of control cells and the IC50 of senescent cells, OIS IMR90 ER:RAS): 12.3
% Cell Survival ([1]; log (dose) [M] -5, individual replicates (Fig 3D)): 3.074% and 3.321% and 3.154%
% Cell Survival ([1]; log (dose) [M] -5.33, individual replicates (Fig 3D)): 5.0494% and 9.706% and 3.6215%
% Cell Survival ([1]; log (dose) [M] -5.66, individual replicates (Fig 3D)): 4.72% and 4.5977% and 3.972%
% Cell Survival ([1]; log (dose) [M] -6, individual replicates (Fig 3D)): 4.061% and 4.981% and 5.374%
% Cell Survival ([1]; log (dose) [M] -6.33, individual replicates (Fig 3D)): 6.147% and 3.321% and 5.958%
% Cell Survival ([1]; log (dose) [M] -6.66, individual replicates (Fig 3D)): 4.501% and 7.152% and 5.374%
% Cell Survival ([1]; log (dose) [M] -7, individual replicates (Fig 3D)): 5.818% and 7.791% and 6.893%
% Cell Survival ([1]; log (dose) [M] -7.33, individual replicates (Fig 3D)): 17.8924% and 15.198% and 16.5888%
% Cell Survival ([1]; log (dose) [M] -7.66, individual replicates (Fig 3D)): 42.1515% and 64.2401% and 57.1262%
% Cell Survival ([1]; log (dose) [M] -8, individual replicates (Fig 3D)): 93.8529% and 97.318% and 99.6495%
concentration at which a senolytic effect was reached ([2]; TIS A549, Hoechst labelling, marginal effect on normal cells): 46.4 nM
IC50 ([2]; TIS model, etoposide-induced senescent A549, nuclei count, 72 h): 72.2 nM
senolytic action (in words) ([2]; experimental screen, TIS senescent A549): strong senolytic action
Mean % Cell Survival ([2]; log (dose) [M] -5): 2.656%
% Cell Survival ([2]; log (dose) [M] -5): 2.664% and 2.743% and 2.561%
Mean % Cell Survival ([2]; log (dose) [M] -5.33): 3.4604%
% Cell Survival ([2]; log (dose) [M] -5.33): 2.7192% and 5.421% and 2.241%
Mean % Cell Survival ([2]; log (dose) [M] -5.66): 3.427%
% Cell Survival ([2]; log (dose) [M] -5.66): 2.83% and 4.507% and 2.945%
Mean % Cell Survival ([2]; log (dose) [M] -6): 6.477%
% Cell Survival ([2]; log (dose) [M] -6): 6.937% and 6.9889% and 5.506%
Mean % Cell Survival ([2]; log (dose) [M] -6.33): 11.1387%
% Cell Survival ([2]; log (dose) [M] -6.33): 13.0411% and 10.516% and 9.859%
Mean % Cell Survival ([2]; log (dose) [M] -6.66): 17.1368%
% Cell Survival ([2]; log (dose) [M] -6.66): 19.7003% and 13.9125% and 17.7977%
Mean % Cell Survival ([2]; log (dose) [M] -7): 34.3857%
% Cell Survival ([2]; log (dose) [M] -7): 35.4051% and 33.1809% and 34.5711%
Mean % Cell Survival ([2]; log (dose) [M] -7.33): 62.5957%
% Cell Survival ([2]; log (dose) [M] -7.33): 65.3163% and 61.2671% and 61.2036%
Mean % Cell Survival ([2]; log (dose) [M] -7.66): 94.3691%
% Cell Survival ([2]; log (dose) [M] -7.66): 88.7902% and 97.518% and 96.799%
Mean % Cell Survival ([2]; log (dose) [M] -8): 98.9494%
% Cell Survival ([2]; log (dose) [M] -8): 101.831% and 100.523% and 94.4942%
IC50 ([3]; TIS model, non-senescent A549, nuclei count, 72 h): 267 nM
Mean % Cell Survival ([3]; log (dose) [M] -5): 2.124%
% Cell Survival ([3]; log (dose) [M] -5): 2.877% and 2.211% and 1.286%
Mean % Cell Survival ([3]; log (dose) [M] -5.33): 3.638%
% Cell Survival ([3]; log (dose) [M] -5.33): 1.2112% and 8.916% and 0.7857%
Mean % Cell Survival ([3]; log (dose) [M] -5.66): 7.571%
% Cell Survival ([3]; log (dose) [M] -5.66): 13.9288% and 0.7846% and 8%
Mean % Cell Survival ([3]; log (dose) [M] -6): 7.77%
% Cell Survival ([3]; log (dose) [M] -6): 11.9606% and 5.492% and 5.857%
Mean % Cell Survival ([3]; log (dose) [M] -6.33): 26.1787%
% Cell Survival ([3]; log (dose) [M] -6.33): 37.7744% and 16.7618% and 24%
Mean % Cell Survival ([3]; log (dose) [M] -6.66): 59.1283%
% Cell Survival ([3]; log (dose) [M] -6.66): 65.1022% and 52.2111% and 60.0714%
Mean % Cell Survival ([3]; log (dose) [M] -7): 84.2496%
% Cell Survival ([3]; log (dose) [M] -7): 92.3543% and 73.8231% and 86.5714%
Mean % Cell Survival ([3]; log (dose) [M] -7.33): 108.222%
% Cell Survival ([3]; log (dose) [M] -7.33): 116.881% and 101.07% and 106.714%
Mean % Cell Survival ([3]; log (dose) [M] -7.66): 106.048%
% Cell Survival ([3]; log (dose) [M] -7.66): 102.877% and 112.197% and 103.071%
Mean % Cell Survival ([3]; log (dose) [M] -8): 97.1202%
% Cell Survival ([3]; log (dose) [M] -8): 99.8486% and 91.5121% and 100%
